From PubChem BioAssay AID248 (DTP/NCI, 2004)
Several values for one entry are separate records, joined by “and”; a condition that tells them apart may be missing. Equal values may be shown once. Inconclusive results and toxic doses are left out.

System: L1210 leukemia ip in BDF1 mice, survival T/C
Test: NCI In Vivo Anticancer Drug Screen. Data for tumor model L1210 Leukemia (intraperitoneal) in B6D2F1 (BDF1) mice
Details: endpoint: mean survival time, higher = longer survival
Procedure, shortened: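 Antitumor effect is assessed in tumor-bearing animals. Survival in the compound arm is compared with a vehicle-dosed control arm and expressed as their quotient.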

O=c1[nH]c(=O)n(C2CC(O)C(CO)O2)cc1C(F)(F)F (stereo unspecified)
T/C (dose: 0.16 mg/kg/injection, schedule: Q#B X045 (ip), vehicle: saline): 109 % of control | T/C (dose: 0.33 mg/kg/injection, schedule: Q#B X045 (ip), vehicle: saline): 119 % of control | T/C (dose: 0.56 mg/kg/injection, schedule: Q01DX Z (ip), vehicle: saline): 112 % of control | T/C (dose: 0.66 mg/kg/injection, schedule: Q#B X045 (ip), vehicle: saline): 122 % of control | T/C (dose: 1.12 mg/kg/injection, schedule: Q01DX Z (ip), vehicle: saline): 106 % of control | T/C (dose: 1.5 mg/kg/injection, schedule: Q01DX Z (sc), vehicle: saline): 112 % of control | T/C (dose: 2.25 mg/kg/injection, schedule: Q01DX Z (ip), vehicle: saline): 118 % of control | T/C (dose: 3.0 mg/kg/injection, schedule: Q01DX Z (sc), vehicle: saline): 114 % of control | T/C (dose: 3.12 mg/kg/injection, schedule: Q01DX Z (im), vehicle: saline): 104 % of control | T/C (dose: 4.5 mg/kg/injection, schedule: Q01DX Z (ip), vehicle: saline): 114 % of control | T/C (dose: 6.0 mg/kg/injection, schedule: Q01DX Z (sc), vehicle: saline): 118 % of control | T/C (dose: 6.25 mg/kg/injection, schedule: Q01DX006 (iv), vehicle: saline): 121 % of control | T/C (dose: 6.25 mg/kg/injection, schedule: Q01DX015 (ip), vehicle: saline): 120 % of control | T/C (dose: 9.0 mg/kg/injection, schedule: Q01DX Z (ip), vehicle: saline): 153 % of control | T/C (dose: 12.0 mg/kg/injection, schedule: Q01DX Z (sc), vehicle: saline): 118 % of control | T/C (dose: 12.5 mg/kg/injection, schedule: Q01DX006 (iv), vehicle: saline): 115 % of control | T/C (dose: 12.5 mg/kg/injection, schedule: Q01DX Z (oral), vehicle: saline): 120 % of control | T/C (dose: 18.0 mg/kg/injection, schedule: Q01DX Z (ip), vehicle: saline): 150 % of control | T/C (dose: 18.75 mg/kg/injection, schedule: Q#A X034 (ip), vehicle: water): 122 % of control | T/C (dose: 20.0 mg/kg/injection, schedule: Q01DX009 (oral), vehicle: saline): 116 % of control | T/C (dose: 20.0 mg/kg/injection, schedule: Q01DX Z (ip), vehicle: saline): 119 % of control | T/C (dose: 25.0 mg/kg/injection, schedule: Q01DX015 (ip), vehicle: saline): 152 % of control | T/C (dose: 25.0 mg/kg/injection, schedule: Q01DX Z (ip), vehicle: saline): 160 % of control | T/C (dose: 25.0 mg/kg/injection, schedule: Q01DX Z (oral), vehicle: saline): 120 % of control | T/C (dose: 38.0 mg/kg/injection, schedule: Q01DX Z (ip), vehicle: water): 117 % of control | T/C (dose: 40.0 mg/kg/injection, schedule: Q01DX009 (oral), vehicle: saline): 121 % of control | T/C (dose: 45.0 mg/kg/injection, schedule: Q01DX015 (oral), vehicle: saline): 122 % of control | T/C (dose: 50.0 mg/kg/injection, schedule: Q01DX Z (ip), vehicle: saline): 154 % of control | T/C (dose: 50.0 mg/kg/injection, schedule: Q01DX Z (sc), vehicle: saline): 156 % of control | T/C (dose: 64.0 mg/kg/injection, schedule: Q01DX009 (ip), vehicle: water): 156 % of control | T/C (dose: 65.0 mg/kg/injection, schedule: Q01DX015 (oral), vehicle: saline): 104 % of control | T/C (dose: 65.0 mg/kg/injection, schedule: Q01DX Z (ip), vehicle: water): 157 % of control | T/C (dose: 100.0 mg/kg/injection, schedule: Q01DX001 (ip), vehicle: saline): 106 % of control and 107 % of control | T/C (dose: 100.0 mg/kg/injection, schedule: Q01DX015 (oral), vehicle: saline): 120 % of control | T/C (dose: 100.0 mg/kg/injection, schedule: Q01DX Z (im), vehicle: saline): 154 % of control | T/C (dose: 100.0 mg/kg/injection, schedule: Q## X001 (ip), vehicle: saline): 103 % of control | T/C (dose: 107.0 mg/kg/injection, schedule: Q01DX Z (ip), vehicle: water): 154 % of control | T/C (dose: 128.0 mg/kg/injection, schedule: Q01DX001 (oral), vehicle: saline): 112 % of control | T/C (dose: 128.0 mg/kg/injection, schedule: Q01DX009 (ip), vehicle: water): 151 % of control | T/C (dose: 128.0 mg/kg/injection, schedule: Q## X003 (oral), vehicle: saline): 119 % of control | T/C (dose: 128.0 mg/kg/injection, schedule: Q## X024 (oral), vehicle: saline): 115 % of control | T/C (dose: 150.0 mg/kg/injection, schedule: Q01DX Z (ip), vehicle: saline): 159 % of control | T/C (dose: 150.0 mg/kg/injection, schedule: Q04DX005 (ip), vehicle: water): 118 % of control | T/C (dose: 150.0 mg/kg/injection, schedule: Q#A X034 (ip), vehicle: water): 124 % of control | T/C (dose: 180.0 mg/kg/injection, schedule: Q01DX Z (ip), vehicle: water): 122 % of control | T/C (dose: 200.0 mg/kg/injection, schedule: Q01DX001 (ip), vehicle: saline): 109 % of control | T/C (dose: 200.0 mg/kg/injection, schedule: Q01DX Z (sc), vehicle: saline): 160 % of control | T/C (dose: 200.0 mg/kg/injection, schedule: Q## X001 (ip), vehicle: saline): 111 % of control | T/C (dose: 250.0 mg/kg/injection, schedule: Q01DX001 (ip), vehicle: saline): 112 % of control | T/C (dose: 250.0 mg/kg/injection, schedule: Q01DX Z (ip), vehicle: saline): 157 % of control | T/C (dose: 251.0 mg/kg/injection, schedule: Q01DX Z (ip), vehicle: saline): 108 % of control | T/C (dose: 256.0 mg/kg/injection, schedule: Q01DX001 (oral), vehicle: saline): 112 % of control | T/C (dose: 256.0 mg/kg/injection, schedule: Q01DX009 (ip), vehicle: saline): 150 % of control | T/C (dose: 256.0 mg/kg/injection, schedule: Q01DX009 (oral), vehicle: saline): 157 % of control | T/C (dose: 256.0 mg/kg/injection, schedule: Q03HX016 (ip), vehicle: water): 153 % of control | T/C (dose: 256.0 mg/kg/injection, schedule: Q04DX003 (ip), vehicle: water): 116 % of control | T/C (dose: 300.0 mg/kg/injection, schedule: Q01DX001 (ip), vehicle: water): 106 % of control | T/C (dose: 300.0 mg/kg/injection, schedule: Q01DX017 (ip), vehicle: water): 119 % of control | T/C (dose: 300.0 mg/kg/injection, schedule: Q01DX Z (ip), vehicle: water): 102 % of control | T/C (dose: 300.0 mg/kg/injection, schedule: Q01DX Z (oral), vehicle: saline): 116 % of control | T/C (dose: 300.0 mg/kg/injection, schedule: Q03DX Z (ip), vehicle: saline): 118 % of control | T/C (dose: 300.0 mg/kg/injection, schedule: Q04DX005 (ip), vehicle: water): 123 % of control | T/C (dose: 320.0 mg/kg/injection, schedule: Q01DX015 (ip), vehicle: saline): 98 % of control | T/C (dose: 350.0 mg/kg/injection, schedule: Q01DX Z (ip), vehicle: saline): 111 % of control | T/C (dose: 351.0 mg/kg/injection, schedule: Q01DX Z (ip), vehicle: saline): 114 % of control | T/C (dose: 400.0 mg/kg/injection, schedule: Q01DX001 (ip), vehicle: saline): 98 % of control and 113 % of control | T/C (dose: 400.0 mg/kg/injection, schedule: Q01DX Z (im), vehicle: saline): 159 % of control | T/C (dose: 400.0 mg/kg/injection, schedule: Q## X001 (ip), vehicle: saline): 116 % of control | T/C (dose: 480.0 mg/kg/injection, schedule: Q01DX015 (ip), vehicle: saline): 98 % of control | T/C (dose: 500.0 mg/kg/injection, schedule: Q01DX001 (ip), vehicle: saline): 112 % of control | T/C (dose: 512.0 mg/kg/injection, schedule: Q01DX001 (oral), vehicle: saline): 112 % of control | T/C (dose: 512.0 mg/kg/injection, schedule: Q01DX009 (ip), vehicle: saline): 117 % of control | T/C (dose: 512.0 mg/kg/injection, schedule: Q04DX003 (ip), vehicle: water): 120 % of control | T/C (dose: 512.0 mg/kg/injection, schedule: Q## X008 (oral), vehicle: saline): 121 % of control | T/C (dose: 600.0 mg/kg/injection, schedule: Q01DX001 (ip), vehicle: water): 107 % of control | T/C (dose: 600.0 mg/kg/injection, schedule: Q01DX Z (oral), vehicle: saline): 106 % of control | T/C (dose: 600.0 mg/kg/injection, schedule: Q02DX009 (ip), vehicle: water): 159 % of control | T/C (dose: 600.0 mg/kg/injection, schedule: Q04DX005 (ip), vehicle: water): 119 % of control | T/C (dose: 800.0 mg/kg/injection, schedule: Q01DX001 (ip), vehicle: saline): 107 % of control and 116 % of control | T/C (dose: 800.0 mg/kg/injection, schedule: Q01DX006 (iv), vehicle: saline): 154 % of control | T/C (dose: 800.0 mg/kg/injection, schedule: Q01DX Z (ip), vehicle: saline): 124 % of control | T/C (dose: 800.0 mg/kg/injection, schedule: Q01DX Z (oral), vehicle: saline): 110 % of control | T/C (dose: 800.0 mg/kg/injection, schedule: Q## X001 (ip), vehicle: saline): 121 % of control | T/C (dose: 1000.0 mg/kg/injection, schedule: Q01DX001 (ip), vehicle: saline): 123 % of control | T/C (dose: 1024.0 mg/kg/injection, schedule: Q01DX001 (oral), vehicle: saline): 121 % of control | T/C (dose: 1024.0 mg/kg/injection, schedule: Q01DX009 (oral), vehicle: saline): 101 % of control | T/C (dose: 1024.0 mg/kg/injection, schedule: Q## X003 (oral), vehicle: saline): 156 % of control | T/C (dose: 1200.0 mg/kg/injection, schedule: Q01DX001 (ip), vehicle: water): 104 % of control | T/C (dose: 1200.0 mg/kg/injection, schedule: Q01DX Z (im), vehicle: saline): 121 % of control | T/C (dose: 1200.0 mg/kg/injection, schedule: Q01DX Z (sc), vehicle: saline): 115 % of control | T/C (dose: 1200.0 mg/kg/injection, schedule: Q04DX005 (ip), vehicle: water): 119 % of control | T/C (dose: 1600.0 mg/kg/injection, schedule: Q01DX Z (im), vehicle: saline): 113 % of control | T/C (dose: 1600.0 mg/kg/injection, schedule: Q01DX Z (oral), vehicle: saline): 97 % of control | T/C (dose: 1600.0 mg/kg/injection, schedule: Q01DX Z (sc), vehicle: saline): 107 % of control | T/C (dose: 2400.0 mg/kg/injection, schedule: Q01DX001 (ip), vehicle: water): 104 % of control | T/C (dose: 4096.0 mg/kg/injection, schedule: Q## X008 (oral), vehicle: saline): 151 % of control
